Patent US8697372B2, “Method for determining the binding of a given compound to a membrane receptor” (CIS Bio International, priority 2009, dated 2014)

Biological target: T1, Delta Opioid receptor implicated in the heterodimer with Dopamine D2 (Homo sapiens, UniProt P41143)
T1 construct: membrane-addressing signal peptide T8 (printed '18') (N); expressed in transfected cells; host or cells: HEK293T/17 cells, transient co-transfection
Assay type: binding
Conditions: 3 nM red antagonist of the opioid receptor, D2 receptor labeled with HALO-Lumi4Tb, HEK293T cells, FIG. 10

T1 sequence (P41143 whole entry): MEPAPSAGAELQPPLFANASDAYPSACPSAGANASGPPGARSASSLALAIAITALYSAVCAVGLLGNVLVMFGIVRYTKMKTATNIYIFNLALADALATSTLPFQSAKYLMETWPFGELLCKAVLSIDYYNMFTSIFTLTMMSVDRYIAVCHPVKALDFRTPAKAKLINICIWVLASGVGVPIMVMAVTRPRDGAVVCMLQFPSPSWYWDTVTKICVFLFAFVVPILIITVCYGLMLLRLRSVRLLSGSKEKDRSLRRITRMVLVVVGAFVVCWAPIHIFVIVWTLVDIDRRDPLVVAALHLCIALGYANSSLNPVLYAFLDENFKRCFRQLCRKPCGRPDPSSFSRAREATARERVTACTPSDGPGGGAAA
T1 sequence (P14416 1-414 isoform P14416-2 partner): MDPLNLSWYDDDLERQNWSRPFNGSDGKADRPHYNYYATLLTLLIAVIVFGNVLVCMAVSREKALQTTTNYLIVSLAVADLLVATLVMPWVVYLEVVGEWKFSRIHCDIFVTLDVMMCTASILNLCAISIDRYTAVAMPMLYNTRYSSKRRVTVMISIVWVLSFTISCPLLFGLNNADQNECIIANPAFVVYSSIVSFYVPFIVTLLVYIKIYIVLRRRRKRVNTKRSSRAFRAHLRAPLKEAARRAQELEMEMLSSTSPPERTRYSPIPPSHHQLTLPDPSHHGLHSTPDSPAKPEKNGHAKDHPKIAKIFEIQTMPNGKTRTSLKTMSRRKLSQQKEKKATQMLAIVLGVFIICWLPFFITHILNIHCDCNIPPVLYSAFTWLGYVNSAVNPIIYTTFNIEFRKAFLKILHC

Structure (SMILES)	Competition with the fluorescent reference ligand and binding to the heterodimers
Oc1ccc2c3c1O[C@H]1c4[nH]c5ccccc5c4C[C@@]4(O)[C@@H](C2)N(CC2CC2)CC[C@]314 [Naltrindole]	compete with the fluorescent reference ligand and bind to the heterodimers
C=CCN1C[C@H](C)N([C@@H](c2ccccc2)c2ccc(C(=O)N(CC)CC)cc2)C[C@H]1C [SNC-162]	compete with the fluorescent reference ligand and bind to the heterodimers
